Data reported in patent publication US20260092061A1, “COMPOUNDS FOR TARGETED PROTEIN DEGRADATION” (Amphista Therapeutics Limited, priority 2022, published 2026).
Read-outs that look alike come from different tables or passages of the source.

Target: T1, BRD9 (Homo sapiens, UniProt Q9H8M2)
T1 sequence (Q9H8M2 1-597): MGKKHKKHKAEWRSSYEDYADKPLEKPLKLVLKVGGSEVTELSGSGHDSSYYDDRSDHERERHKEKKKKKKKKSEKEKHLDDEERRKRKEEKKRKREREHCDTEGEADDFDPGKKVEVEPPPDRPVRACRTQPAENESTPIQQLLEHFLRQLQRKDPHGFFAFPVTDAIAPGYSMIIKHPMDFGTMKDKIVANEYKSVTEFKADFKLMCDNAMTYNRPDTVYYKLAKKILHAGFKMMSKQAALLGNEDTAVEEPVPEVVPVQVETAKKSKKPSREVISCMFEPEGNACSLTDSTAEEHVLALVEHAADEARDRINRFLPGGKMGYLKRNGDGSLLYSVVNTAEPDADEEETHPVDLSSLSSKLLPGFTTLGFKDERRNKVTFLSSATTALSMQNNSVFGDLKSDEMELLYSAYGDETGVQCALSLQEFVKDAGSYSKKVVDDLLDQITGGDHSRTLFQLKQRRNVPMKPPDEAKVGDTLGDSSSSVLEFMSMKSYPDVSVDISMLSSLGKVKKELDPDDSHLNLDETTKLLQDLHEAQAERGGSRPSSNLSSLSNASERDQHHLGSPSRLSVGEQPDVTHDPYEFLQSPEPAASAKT
Test: Degradation of BRD9 (IF), immunofluorescence in MV4-11 cells, 24 hours (Assay Protocol 2)
Assay type: cell-based
Parameters: A suspension of MV4-11 cells (ATCC CRL-9591) was prepared; host or cells: MV4-11
Conditions: BRD9 degradation; for DC50: read-out: DC50
Method: Assay Protocol 2—Degradation of BRD9 (IF)
A suspension of MV4-11 cells (ATCC CRL-9591) was prepared in phenol red-free assay media (IMDM Thermo Scientific 21056023+10% FBS ATCC 302025) and cells were seeded at 20,000 cells per well (45 μL) in sterile black poly-d-lysine coated 384 well plates (Greiner 781948). Compounds were prepared at 1000× final concentration in DMSO, diluted 1:100 in assay media, and 5 μL compound was added to each well of the cell plate. Cells were incubated for 24 hours at 37° C. with 5% CO2. All the following incubations for immunofluorescence staining were at room temperature. 15 μL of 16% PFA was added to each well (3.7% final concentration) and the cells were fixed for 15 min then washed twice with DPBS. Cells were permeabilised with 0.1% Triton X-100 for 10 min, Triton X-100 was removed, then blocked with 1% BSA in DPBS for 1 hour. Cells were stained with 25 μL anti-BRD9 E4Q3F antibody (CST 48306) diluted 1:25600 in 1% BSA in DPBS for 2-3 hours. Wels were washed twice with DPBS then incubated with 25 μL of 1% BSA containing a 1:1000 dilution of Anti-rabbit Alexa Fluor™ 647 secondary antibody (Thero Scientific A21244) and 1 μg/mL Hoechst nuclear counter stain (Abcam ab228551) for 1 hour. Wells were washed twice with DPBS prior to imaging on a Perkin Elmer Operetta CLS with 10× air lens. Images were processed using Harmony High-Content Imaging and Analysis Software (Perkin Elmer) and the mean contrast ratio of Alexa Fluor™ 647 in central nuclei was used to quantify BRD9 protein levels. Data was further analysed using Dotmatics software and % BRD9 remaining was calculated by normalisation to average data from high and low control wells (cells treated with DMSO or 100 nM CFT-8634 respectively).

[1] = MV4-11, Assay protocol 2, read-out: Dmax

DC50 (Assay protocol 2) [nM] | Dmax [1] [%] | Dmax (Assay protocol 2) | Structure (SMILES)
10 to 25 | 40 to 70 |  | COc1cc(-c2cn(C)c(=O)c(C)c2C)cc(OC)c1CN(C)Cc1cccc2c1CCN(C(=O)/C(C#N)=C/C(C)(C)C)C2C(C)C (mixture of isomers) [Compound C95, (E/Z)-2-(5-(((2,6-dimethoxy-4-(1,4,5-trimethyl-6-oxo-1,6-dihydropyridin-3-yl)benzyl)(methyl)amino)methyl)-1-isopropyl-1,2,3,4-tetrahydroisoquinoline-2-carbonyl)-4,4-dimethylpent-2-enenitrile]
1.25 to 10 | > 75 |  | COc1cc(-c2cn(C)c(=O)c(C)c2C)cc(OC)c1CN1CCCN(Cc2cccc3c2CCN(C(=O)/C(C#N)=C/C(C)(C)CF)[C@@H]3C(C)C)CC1 (mixture of isomers) [Compound C84, (E/Z)-2-(5-((4-(2,6-dimethoxy-4-(1,4,5-trimethyl-6-oxo-1,6-dihydropyridin-3-yl)benzyl)-1,4-diazepan-1-yl)methyl)-1-isopropyl-1,2,3,4-tetrahydroisoquinoline-2-carbonyl)-5-fluoro-4-dimethylpent-2-enenitrile]
25 to 1000 | 40 to 70 |  | COc1cc(-c2cn(C)c(=O)c(C)c2C)cc(OC)c1CN1CCC2(CCN(c3ccc4c(c3)[C@H](C)N(C(=O)/C(C#N)=C/C(C)(C)C)CC4)CC2)C1 [Compound C54]
25 to 1000 | > 75 |  | COc1cc(-c2cn(C)c(=O)c(C)c2C)ccc1OC1CCC(Cc2cccc3c2CCN(C(=O)/C(C#N)=C/C(C)(C)N2CCN(C)CC2)C3C(C)C)CC1 (centres unmarked) [Compound C85]
10 to 25 | > 75 |  | COc1cc(-c2cn(C)c(=O)c(C)c2C)cc(OC)c1CN1CCC(Cc2cccc3c2CCN(C(=O)/C(C#N)=C/C(C)(C)C)C3C)C(C)(C)C1 (centres unmarked) [Compound C62]
10 to 25 | > 75 |  | COc1cc(-c2cn(C)c(=O)c(C)c2C)cc(OC)c1CN1C[C@H](C)N(Cc2cccc3c2CCN(C(=O)/C(C#N)=C/C(C)(C)CF)C3C(C)C)C[C@H]1C (mixture of isomers) [Compound C98, (E/Z)-2-(5-(((2S,5R)-4-(2,6-dimethoxy-4-(1,4,5-trimethyl-6-oxo-1,6-dihydropyridin-3-yl)benzyl)-2,5-dimethylpiperazin-1-yl)methyl)-1-isopropyl-1,2,3,4-tetrahydroisoquinoline-2-carbonyl)-5-fluoro-4,4-dimethylpent-2-enenitrile]
< 1.25 |  | +++ (+++ = ≥75%) | COc1cc(-c2cn(C)c(=O)c(C)c2C)cc(OC)c1CN1CCN(Cc2cccc3c2CCN(C(=O)/C(C#N)=C/C(C)(C)CF)C3C(C)C)C2(CC2)C1 (single isomer, unassigned) [Compound C77, (E/Z)-2-(5-((7-(2,6-dimethoxy-4-(1,4,5-trimethyl-6-oxo-1,6-dihydropyridin-3-yl)benzyl)-4,7-diazaspiro[2.5]octan-4-yl)methyl)-1-isopropyl-1,2,3,4-tetrahydroisoquinoline-2-carbonyl)-5-fluoro-4,4-dimethylpent-2-enenitrile]
< 1.25 | 40 to 70 |  | COc1cc(/C=C(\C#N)C(=O)N2CCc3c(CN4CCN(Cc5c(OC)cc(-c6cn(C)c(=O)c(C)c6C)cc5OC)CC4)cccc3C2C)c(F)cn1 (mixture of isomers) [Compound B92, (E/Z)-2-(5-((4-(2,6-dimethoxy-4-(1,4,5-trimethyl-6-oxo-1,6-dihydropyridin-3-yl)benzyl)piperazin-1-yl)methyl)-1-methyl-1,2,3,4-tetrahydroisoquinoline-2-carbonyl)-3-(5-fluoro-2-methoxypyridin-4-yl)acrylonitrile]
1.25 to 10 | > 75 |  | COc1cc(-c2cn(C)c(=O)c(C)c2C)cc(OC)c1CN1[C@H](C)CN(Cc2cccc3c2CCN(C(=O)/C(C#N)=C/C(C)(C)C)C3C)C[C@@H]1C (mixture of isomers) [Compound B114, (E/Z)-2-(5-(((3S,5R)-4-(2,6-dimethoxy-4-(1,4,5-trimethyl-6-oxo-1,6-dihydropyridin-3-yl)benzyl)-3,5-dimethylpiperazin-1-yl)methyl)-1-methyl-1,2,3,4-tetrahydroisoquinoline-2-carbonyl)-4,4-dimethylpent-2-enenitrile]
1.25 to 10 | > 75 |  | COc1cc(-c2cn(C)c(=O)c(C)c2C)cc(OC)c1CN1CCN(Cc2cccc3c2CCN(C(=O)/C(C#N)=C/C(C)C)C3C(C)C)CC1 (mixture of isomers) [Compound C22, (E/Z)-2-(5-((4-(2,6-dimethoxy-4-(1,4,5-trimethyl-6-oxo-1,6-dihydropyridin-3-yl)benzyl)piperazin-1-yl)methyl)-1-isopropyl-1,2,3,4-tetrahydroisoquinoline-2-carbonyl)-4-methylpent-2-enenitrile]
10 to 25 | > 75 |  | COc1cc(-c2cn(C)c(=O)c(C)c2C)cc(OC)c1CN1C[C@@H](C)N(Cc2cccc3c2CCN(C(=O)/C(C#N)=C/C(C)(C)C)C3C)C[C@@H]1C (mixture of isomers) [Compound B111, (E/Z)-2-(5-(((2R,5S)-4-(2,6-dimethoxy-4-(1,4,5-trimethyl-6-oxo-1,6-dihydropyridin-3-yl)benzyl)-2,5-dimethylpiperazin-1-yl)methyl)-1-methyl-1,2,3,4-tetrahydroisoquinoline-2-carbonyl)-4,4-dimethylpent-2-enenitrile]
1.25 to 10 | > 75 |  | COc1cc(-c2cn(C)c(=O)c(C)c2C)cc(OC)c1CN1CCN(C(=O)CCCCOc2ccc3c(c2)C(C)N(C(=O)/C(C#N)=C/c2nccs2)CC3)CC1 (mixture of isomers) [Compound B84, (E/Z)-2-(7-((5-(4-(2,6-dimethoxy-4-(1,4,5-trimethyl-6-oxo-1,6-dihydropyridin-3-yl)benzyl)piperazin-1-yl)-5-oxopentyl)oxy)-1-methyl-1,2,3,4-tetrahydroisoquinoline-2-carbonyl)-3-(thiazol-2-yl)acrylonitrile]
1.25 to 10 | 70 to 75 |  | COc1cc(-c2cn(C)c(=O)c(C)c2C)cc(OC)c1CN1CCC(Cc2cccc3c2CCN(C(=O)/C(C#N)=C/C(C)(C)CF)C3C(C)C)CC1 (mixture of isomers) [Compound C80]
25 to 1000 | 40 to 70 |  | COc1cc(-c2cn(C)c(=O)c(C)c2C)cc(OC)c1CN1CCN(Cc2cccc3c2CCN(C(=O)/C(C#N)=C/C(C)(C)C)[C@@H]3C(C)C)CC12CC2 (single isomer, unassigned) [Compound C82, (E/Z)-2-(5-((4-(2,6-dimethoxy-4-(1,4,5-trimethyl-6-oxo-1,6-dihydropyridin-3-yl)benzyl)-4,7-diazaspiro[2.5]octan-7-yl)methyl)-1-isopropyl-1,2,3,4-tetrahydroisoquinoline-2-carbonyl)-4,4-dimethylpent-2-enenitrile]
1.25 to 10 | 70 to 75 |  | COc1cc(-c2cn(C)c(=O)c(C)c2C)cc(OC)c1CN1CC(N(C)c2ccc3c(c2)[C@H](C)N(C(=O)/C(C#N)=C/C(C)(C)C)CC3)C1 (single isomer, unassigned) [Compound C44]
1.25 to 10 | > 75 |  | COc1cc(-c2cn(C)c(=O)c(C)c2C)cc(OC)c1CN1CCC(Oc2cccc(C3CCCN3C(=O)/C(C#N)=C/C(C)(C)C)c2)CC1 (mixture of isomers) [Compound B48, (E/Z)-2-(2-(3-((1-(2,6-dimethoxy-4-(1,4,5-trimethyl-6-oxo-1,6-dihydropyridin-3-yl)benzyl)piperidin-4-yl)oxy)phenyl)pyrrolidine-1-carbonyl)-4,4-dimethylpent-2-enenitrile]
